Assay results from paper PMC12223310, “Mining the heparinome for cryptic antimicrobial peptides that selectively kill Gram-negative bacteria” (Molecular Systems Biology, 2025).
Ends that are not written are not given here.

Legend:
Escherichia coli = type: cell-based, Escherichia coli BW25113
Method: (§1) Antimicrobial activities were determined by the microtiter broth dilution method recommended by the National Committee of Laboratory Safety and Standards (NCLSS), adapted for AMPs (Wiegand et al, [2008]). Briefly, overnight bacterial cell cultures were brought to an exponential growth state (OD600 = 0.4) in MH broth and diluted to a final concentration of 5 × 10^5 CFU/mL. In all, 1:2 peptide serial dilutions were prepared in 96-well polypropylene plates (Greiner, Frickenhausen, Germany), in MH medium containing 0.2% (w/v) of bovine serum albumin (BSA) and 0.02% glacial acetic acid. […] The lowest concentration with no colonies was taken as MBC. The results are the average of three independent studies.

Acinetobacter baumannii = type: cell-based, Acinetobacter baumannii ATCC 15308
Method: as §1

[1] = system: Pseudomonas sp (Pseudomonas aeruginosa); type: cell-based, Pseudomonas aeruginosa ATCC 15915
Method: as §1

Staphylococcus aureus = type: cell-based, Staphylococcus aureus ATCC 12600
Method: as §1

Enterococcus faecium = type: cell-based, Enterococcus faecium ATCC 19434
Method: as §1

Listeria monocytogenes = type: cell-based, Listeria monocytogenes ATCC 19112
Method: as §1

A. baumannii 3878 = type: cell-based
Method: as §1

A. baumannii 3880 = type: cell-based
Method: as §1

E. coli 1166795 = type: cell-based
Method: as §1

E. coli CFT073 = type: cell-based
Method: as §1

P. aeruginosa 827632 = type: cell-based
Method: as §1

P. aeruginosa 827651 = type: cell-based
Method: as §1

in vitro = type: cell-based; conditions: human, MRC-5 cells
Method: (§2) Toxicity in MRC-5 and HepG2 cells was tested by the MTT assay, as described (Bello-Madruga et al, [2023]). Cell lines were maintained in Eagle’s minimum essential medium (MEMα) supplemented with 10% fetal bovine serum (FBS). Cells were cultured in 75-cm^2 flasks and then transferred to polystyrene 96-well plates, at 3 × 10^4 cells per well, and incubated overnight for attachment to the well surface. Then culture media was removed and 1:2 peptide serial dilutions in MEMα were added to each well and later incubated for 4 h. After incubation, peptides were removed and 100 μL of 0.5 mg/mL MTT staining solution in MEMα supplemented with 10% FBS was added to cells and incubated for 1.5 h at 37 °C. Formazan crystals in living cells were detected after disruption with 200 μL dimethyl sulfoxide and then absorbance was measured at 570 nm in a Tecan Spark instrument (Tecan, Männedorf, Switzerland). The results are the average of three independent studies.

Cytotoxicity, MTT assay = type: cell-based; conditions: human, HepG2 cells, 4 h peptide incubation in MEMα, average of three studies, read-out: LC50 (HepG2 cells)
Method: as §2

horse erythrocytes = type: cell-based
Method: Peptide toxicity was tested on horse erythrocytes (Sandín et al, [2021]). Horse defibrinated blood was washed three times in phosphate buffer saline (PBS) pH 7.2 by centrifugation at 3× 3000 rpm for 10 min, to remove excess hemoglobin in the supernatant and then diluted tenfold in PBS. Next, 50 μL of erythrocytes were added to a 1.5 mL polypropylene tube and incubated with 50 μL of a 1:2 peptide serial dilution in PBS. An erythrocyte disruption (ED) control was prepared by adding 50 μL of 0.1% TritonX-100 in PBS instead of the peptides and an intact erythrocyte (IC) control by adding 50 μL of PBS alone. All samples and controls were incubated for 2 h at 37 °C. Samples were centrifuged at 3000 rpm for 3 min, and the supernatants were transferred to a polystyrene 96-well plate and inspected for ED by reading the absorbance at 540 nm in a Tecan Spark instrument (Tecan, Männedorf, Switzerland). The results are the average of three independent studies. The hemolysis percentage was calculated as: Hemolysis%=Sample−IC/ED−IC×100

MRC-5 cells = assay: in vitro; type: cell-based
Method: as §2

## RWHLTHRPKTGYIRVLVH-NH2 [HBP-1]
Escherichia coli
  MBC E. coli: 1.6 µM
  MIC E. coli: 1.6 µM
Acinetobacter baumannii
  MBC A. baumannii: 1.6 µM
  MIC A. baumannii: 1.6 µM
[1]
  MBC Pseudomonas sp: 3.1 µM
  MIC Pseudomonas sp: 3.1 µM
Staphylococcus aureus
  MBC S. aureus: > 100 µM
  MIC S. aureus: 50 µM
Enterococcus faecium
  MBC E. faecium: ≥100/ > 100 µM
  MIC E. faecium: ≥100/ > 100 µM
Listeria monocytogenes
  MBC L. monocytogenes: 12.5 µM
  MIC L. monocytogenes: 6.3 µM
A. baumannii 3878
  MBC A. baumannii 3878: 1.6 µM
  MIC A. baumannii 3878: 1.6 µM
A. baumannii 3880
  MBC A. baumannii 3880: 12.5 µM
  MIC A. baumannii 3880: 12.5 µM
E. coli 1166795
  MBC E. coli 1166795: 1.6 µM
  MIC E. coli 1166795: 1.6 µM
E. coli CFT073
  MBC E. coli CFT073: 3.1 µM
  MIC E. coli CFT073: 3.1 µM
P. aeruginosa 827632
  MBC P. aeruginosa 827632: 25 µM
  MIC P. aeruginosa 827632: 25 µM
P. aeruginosa 827651
  MBC P. aeruginosa 827651: 50 µM
  MIC P. aeruginosa 827651: 25 µM
In vitro
  CC50 at 4 h: > 200 µM
Cytotoxicity, MTT assay
  CC50 at 4 h: > 200 µM

## FRFKRKLPKYLLF-NH2 [HBP-3]
Escherichia coli
  MBC E. coli: 3.1 µM
  MIC E. coli: 3.1 µM
Acinetobacter baumannii
  MBC A. baumannii: 0.8 µM
  MIC A. baumannii: 0.8 µM
[1]
  MBC Pseudomonas sp: 6.3 µM
  MIC Pseudomonas sp: 6.3 µM
Staphylococcus aureus
  MBC S. aureus: 50 µM
  MIC S. aureus: 25 µM
Enterococcus faecium
  MBC E. faecium: >100/ > 100 µM
  MIC E. faecium: >100/ > 100 µM
Listeria monocytogenes
  MBC L. monocytogenes: 12.5 µM
  MIC L. monocytogenes: 6.3 µM
A. baumannii 3878
  MBC A. baumannii 3878: 6.3 µM
  MIC A. baumannii 3878: 6.3 µM
A. baumannii 3880
  MBC A. baumannii 3880: 6.3 µM
  MIC A. baumannii 3880: 6.3 µM
E. coli 1166795
  MBC E. coli 1166795: 1.6 µM
  MIC E. coli 1166795: 1.6 µM
E. coli CFT073
  MBC E. coli CFT073: 25 µM
  MIC E. coli CFT073: 12.5 µM
P. aeruginosa 827632
  MBC P. aeruginosa 827632: 25 µM
  MIC P. aeruginosa 827632: 25 µM
P. aeruginosa 827651
  MBC P. aeruginosa 827651: 12.5 µM
  MIC P. aeruginosa 827651: 12.5 µM
In vitro
  CC50 at 4 h: > 200 µM
Cytotoxicity, MTT assay
  CC50 at 4 h: > 200 µM

## GWKDKKSYRWFLQHRPQVGYIRVRFY-NH2 [HBP-4]
Escherichia coli
  MBC E. coli: 0.2 µM
  MIC E. coli: 0.2 µM
Acinetobacter baumannii
  MBC A. baumannii: 0.8 µM
  MIC A. baumannii: 0.8 µM
[1]
  MBC Pseudomonas sp: 0.8 µM
  MIC Pseudomonas sp: 0.8 µM
Staphylococcus aureus
  MBC S. aureus: 12.5 µM
  MIC S. aureus: 3.1 µM
Enterococcus faecium
  MBC E. faecium: 50 µM
  MIC E. faecium: 12.5 µM
Listeria monocytogenes
  MBC L. monocytogenes: 3.1 µM
  MIC L. monocytogenes: 1.6 µM
A. baumannii 3878
  MBC A. baumannii 3878: 0.8 µM
  MIC A. baumannii 3878: 0.8 µM
A. baumannii 3880
  MBC A. baumannii 3880: 1.6 µM
  MIC A. baumannii 3880: 1.6 µM
E. coli 1166795
  MBC E. coli 1166795: < 0.1 µM
  MIC E. coli 1166795: < 0.1 µM
E. coli CFT073
  MBC E. coli CFT073: 1.6 µM
  MIC E. coli CFT073: 0.8 µM
P. aeruginosa 827632
  MBC P. aeruginosa 827632: 6.3 µM
  MIC P. aeruginosa 827632: 6.3 µM
P. aeruginosa 827651
  MBC P. aeruginosa 827651: 6.3 µM
  MIC P. aeruginosa 827651: 3.1 µM
In vitro
  CC50 at 4 h: 35 µM
Cytotoxicity, MTT assay
  CC50 at 4 h: 38 µM

## RFYLSKKKWVMVP-NH2 [HBP-2]
Escherichia coli
  MBC E. coli: 25 µM
  MIC E. coli: 12.5 µM
Acinetobacter baumannii
  MBC A. baumannii: 50 µM
  MIC A. baumannii: 50 µM
[1]
  MBC Pseudomonas sp: 50 µM
  MIC Pseudomonas sp: 25 µM
Staphylococcus aureus
  MBC S. aureus: >100/ > 100 µM
  MIC S. aureus: >100/ > 100 µM
Enterococcus faecium
  MBC E. faecium: >100/ > 100 µM
  MIC E. faecium: >100/ > 100 µM
Listeria monocytogenes
  MBC L. monocytogenes: > 100 µM
  MIC L. monocytogenes: 37.5 µM
A. baumannii 3878
  MBC A. baumannii 3878: 50 µM
  MIC A. baumannii 3878: 50 µM
A. baumannii 3880
  MBC A. baumannii 3880: > 50 µM
  MIC A. baumannii 3880: > 50 µM
E. coli 1166795
  MBC E. coli 1166795: 12.5 µM
  MIC E. coli 1166795: 12.5 µM
E. coli CFT073
  MBC E. coli CFT073: 100 µM
  MIC E. coli CFT073: 50 µM
P. aeruginosa 827632
  MBC P. aeruginosa 827632: > 100 µM
  MIC P. aeruginosa 827632: > 100 µM
P. aeruginosa 827651
  MBC P. aeruginosa 827651: > 100 µM
  MIC P. aeruginosa 827651: > 100 µM
In vitro
  CC50 at 4 h: > 200 µM
Cytotoxicity, MTT assay
  CC50 at 4 h: > 200 µM

## HNLFRKLTHRLFRRNFGYTL-NH2 [HBP-5 [1–20]]
Escherichia coli
  MIC E. coli: 0.4 µM
Acinetobacter baumannii
  MIC A. baumannii: 0.4 µM
[1]
  MIC Pseudomonas sp: 0.4 µM
Staphylococcus aureus
  MIC S. aureus: 6.3 µM
Listeria monocytogenes
  MIC L. monocytogenes: 1.6 µM
Horse erythrocytes
  Hemolysis (250 µM peptide): 24 ± 2
In vitro
  CC50 at 4 h: 63 ± 1 µM

## HNLFRKLTHRLFRRNFGYTLRSV-NH2 [HBP-5]
Escherichia coli
  MBC E. coli: 0.4 µM
  MIC E. coli: 0.4 µM
Acinetobacter baumannii
  MBC A. baumannii: 0.2 µM
  MIC A. baumannii: 0.2 µM
[1]
  MBC Pseudomonas sp: 0.8 µM
  MIC Pseudomonas sp: 0.8 µM
Staphylococcus aureus
  MBC S. aureus: 6.3 µM
  MIC S. aureus: 6.3 µM
Enterococcus faecium
  MBC E. faecium: 6.3 µM
  MIC E. faecium: 3.1 µM
Listeria monocytogenes
  MBC L. monocytogenes: 3.1 µM
  MIC L. monocytogenes: 1.6 µM
A. baumannii 3878
  MBC A. baumannii 3878: 0.2 µM
  MIC A. baumannii 3878: 0.2 µM
A. baumannii 3880
  MBC A. baumannii 3880: 0.4 µM
  MIC A. baumannii 3880: 0.4 µM
E. coli 1166795
  MBC E. coli 1166795: < 0.1 µM
  MIC E. coli 1166795: < 0.1 µM
E. coli CFT073
  MBC E. coli CFT073: 0.8 µM
  MIC E. coli CFT073: 0.4 µM
P. aeruginosa 827632
  MBC P. aeruginosa 827632: 1.6 µM
  MIC P. aeruginosa 827632: 1.6 µM
P. aeruginosa 827651
  MBC P. aeruginosa 827651: 1.6 µM
  MIC P. aeruginosa 827651: 0.8 µM
Horse erythrocytes
  Hemolysis (250 µM peptide): 23 ± 1
In vitro
  CC50 at 4 h: 69 ± 2 µM
MRC-5 cells
  LC50 (MRC-5 cells, µM): 69 µM
Cytotoxicity, MTT assay
  CC50 at 4 h: 80 µM
